In patent publication US20230048349A1, “RECIRCULATING AQUACULTURE SYSTEM AND METHODS THEREOF” (THE TEXAS A&M UNIVERSITY SYSTEM, priority 2021, published 2023):
Values after ≈ are worked out from the molar mass of the structure shown.

Legend:
[1] = tested on: V. campbellii and A. hydrophila; assay: Growth inhibition test, ranges stated over two G− pathogens (Example 8); type: cell-based, Vibrio campbellii; Aeromonas hydrophila; details: range over V. campbellii and A. hydrophila
Protocol: (§1) These compounds were used to assess the antimicrobial efficacy of PHB and chitosan under the best scenario. Various concentrations of PHB intermediates (5-125 mM), COS (0.2-3 mM), or mixtures of 3-HB+COS (i.e., Mixture 1 (4 mM 3-HB+0.1 mM COS), Mixture 2 (12 mM 3-HB+0.3 mM COS), Mixture 3 (24 mM 3-HB+0.6 mM COS), and Mixture 4 (60 mM 3-HB+1.5 mM COS)) were used based on previously in vitro antimicrobial studies using PHB or chitosan. For S. agalactiae and RHA1, tryptic soy broth (TSB) and Reasoner's 2A (R2A) media were used, respectively. The pH of all growth mediums (i.e., LB, TSB, or R2A) was adjusted to 6.0 based on the typical pH value found in aquatic animals' gut and the optimized antimicrobial activity of PHB. The culture tubes were inoculated with 2% v/v of the pre-grown strains (optical density (OD600) of 1.0) and incubated at 30° C. under 150 rpm. The bacterial growth was determined by absorbance at OD600. The growth of tested strains in the absence of PHB or chitosan intermediates were used as controls. The inhibition efficiency (%) was calculated using Eq. (1): […]
(§2) where ODcontrol and ODsample refer to the highest optical densities of the growth curves for the controls and samples, respectively.

Escherichia coli = assay: Growth inhibition test in liquid medium (OD600); type: cell-based; details: Escherichia coli, E. coli
Protocol: as §1, §2

Rhodococcus jostii RHA1 = assay: Growth inhibition test in liquid medium (OD600); type: cell-based; details: R. jostii RHA1
Protocol: as §1, §2

Bacillus megaterium = assay: Growth inhibition test in liquid medium (OD600); type: cell-based; details: Priestia megaterium, B. megaterium
Protocol: as §1, §2

Vibrio campbellii = assay: Growth inhibition test in liquid medium (OD600); type: cell-based; details: Vibrio campbellii
Protocol: as §1, §2

Streptococcus agalactiae = assay: Growth inhibition test in liquid medium (OD600); type: cell-based; details: Streptococcus agalactiae, S. agalactide
Protocol: as §1, §2

Aeromonas hydrophila = assay: Growth inhibition test in liquid medium (OD600); type: cell-based; details: Aeromonas hydrophila, A. hydrophila
Protocol: as §1, §2

S. agalactiae = assay: Growth inhibition test of SCFAs and MCFAs (Example 15); type: cell-based, Streptococcus agalactiae; details: Streptococcus agalactiae; S. agalactiae
Protocol: (§3) Growth Inhibition Tests: Antipathogenic Properties of SCFAs and MCFAs. Growth inhibition tests to measure optical density (OD600) and calculate % inhibition efficiencies, minimum, and median inhibitory concentrations (MIC and IC50) were conducted as described previously. […] The PHA intermediates (SCFAs and MCFAs) are water-soluble, representing the PHA degradation products in the gastrointestinal tract of aquatic animals, allowing to assess the antipathogenic efficacy of PHA under the best scenario. The culture tubes were incubated at 30° C. under 150 rpm. The growths of tested strains in the absence of PHA intermediates were used as controls.

[2] = tested on: Vibrio-challenged Artemia; assay: Artemia pathogen challenge test (Example 17); type: in vivo, Artemia franciscana; details: after three days; supplement 1 g/L; V. campbellii 10^8 cells/ml
Protocol: The pathogen challenge tests were designed to determine the effects of individual supplements on the survival of Vibrio-challenged Artemia. The pathogen challenge tests were conducted as described in the starvation tests, except that Artemia cultures (one day old) with each of the abovementioned supplements (1 g/L) were exposed to a lethal dose (10^8 cells/ml) of live V. campbellii as determined previously. In all treatments, 250 mg/L of yeast was added initially as a feed. Unchallenged and Vibrio-challenged Artemia were used as negative and positive controls, respectively. The survival of Artemia was monitored daily for three days.

[3] = tested on: V. campbellii and A. hydrophila; assay: Growth inhibition test of SCFAs and MCFAs, ranges over two G− pathogens (Example 15); type: cell-based, Vibrio campbellii; Aeromonas hydrophila; details: range over V. campbellii and A. hydrophila; LB pH 6
Protocol: as §3

[4] = 5 mM, read-out: Inhibition Efficiency (%)
[5] = 25 mM, read-out: Inhibition Efficiency (%)
[6] = 50 mM, read-out: Inhibition Efficiency (%)
[7] = 125 mM, read-out: Inhibition Efficiency (%)
[8] = read-out: Inhibition Efficiency (%)

Work on `CCCC(=O)O` [Butyrate, butyrate] yielded an IC50 [1] of 5.8 to 39.7 mM, an inhibition at 5000 µM (Escherichia coli; [4]) of 5 ± 0.89% and an inhibition at 25000 µM (Escherichia coli; [5]) of 10.7 ± 12%. For the same compound, the inhibition at 50000 µM (Escherichia coli; [6]) was 23 ± 6.24%, the inhibition at 125000 µM (Escherichia coli; [7]) was 71.1 ± 8.25% and the IC50 (Escherichia coli; 4-parameter logistic fit) was 61.2 mM. For the same compound, the IC50 (Rhodococcus jostii RHA1; 4-parameter logistic fit) was “N.I”, the MIC (Rhodococcus jostii RHA1; pH 6.0, 30° C.) was “N.I” and the inhibition at 5000 µM (Rhodococcus jostii RHA1; Rhodococcus jostii, 5 mM, read-out: Inhibition Efficiency (%)) was -25.2 ± 4.93%. It also gave an inhibition at 25000 µM (Rhodococcus jostii RHA1; Rhodococcus jostii, 25 mM, read-out: Inhibition Efficiency (%)) of -70.8 ± 2.65%, an inhibition at 50000 µM (Rhodococcus jostii RHA1; Rhodococcus jostii, 50 mM, read-out: Inhibition Efficiency (%)) of -92.2 ± 21.6% and an inhibition at 125000 µM (Rhodococcus jostii RHA1; Rhodococcus jostii, 125 mM, read-out: Inhibition Efficiency (%)) of 100%. For the same compound, the inhibition at 5000 µM (Bacillus megaterium; [4]) was -5.8 ± 1.74%, the inhibition at 25000 µM (Bacillus megaterium; [5]) was 15.5 ± 1.56% and the inhibition at 50000 µM (Bacillus megaterium; [6]) was 100%. The inhibition at 125000 µM (Bacillus megaterium; [7]) was 100%, the IC50 (Bacillus megaterium; 4-parameter logistic fit, read-out: IC50) was 26.2 mM and the MIC (Bacillus megaterium; pH 6.0, 30° C., read-out: MIC) was 53 mM (≈ 4670 µg/mL). The IC50 (Vibrio campbellii) was 3.82 mM, the MIC (Vibrio campbellii; pH 6) was 25.7 mM (≈ 2260 µg/mL) and the inhibition at 5000 µM (Vibrio campbellii; [8]) was 9.14 ± 8.9%. For the same compound, the inhibition at 25000 µM (Vibrio campbellii; [8]) was 100%, the inhibition at 50000 µM (Vibrio campbellii; [8]) was 100% and the inhibition at 125000 µM (Vibrio campbellii; [8]) was 100%. It also gave an inhibition at 5000 µM (Streptococcus agalactiae; [4]) of 0.75 ± 0.01%, an inhibition at 25000 µM (Streptococcus agalactiae; [5]) of 0.43 ± 0.15% and an inhibition at 50000 µM (Streptococcus agalactiae; [6]) of 10.2 ± 1.83%. It also gave an inhibition at 125000 µM (Streptococcus agalactiae; [7]) of 100%, an IC50 (Streptococcus agalactiae; 4-parameter logistic fit) of 83.4 mM and an inhibition at 5000 µM (Aeromonas hydrophila; [4]) of 0.8 ± 0.22%. The inhibition at 25000 µM (Aeromonas hydrophila; [5]) was 12.7 ± 1.8%, the inhibition at 50000 µM (Aeromonas hydrophila; [6]) was 72.4 ± 5.4% and the inhibition at 125000 µM (Aeromonas hydrophila; [7]) was 100%. The IC50 (Aeromonas hydrophila; 4-parameter logistic fit) was 39.7 mM, the IC50 (S. agalactiae) was 57.5 mM and the “survival of Vibrio-challenged Artemia” value [2] was 10%. It also gave an IC50 [3] of 8.97 to 30.9 mM.
